{
  "source": "patent US6497872B1",
  "about": "“Neural transplantation using proliferated multipotent neural stem cells and their progeny” (NeuroSpheres Holdings Ltd., priority 1991, dated 2002)",
  "key": {"[1]": {"test_system": "BrdU positive cells in cervical spinal cord", "assay": "In vivo infusion of growth factors into ventricles, BrdU labelling of cervical spinal cord (Example 30)", "set-up": "species or system mouse", "conditions": "25 μg/mL, osmotic mini-pump, six days", "description": "Adult male CD1 albino mice (30-35 g) from Charles River were anaesthetized with sodium pentobarbital ([…]) and placed in a stereotaxic apparatus. The dorsal aspect of the skull was exposed with a longitudinal incision. Cannulas were inserted into the fourth ventricle (stereotaxic coordinates A/P −7.0, L ±0.3 D/V −5.8), cerebral aqueduct (A/P −4.8 L ±D/V −2.6), or central canal (DIV −1.5). The cannulae were attached with sterile tubing to subcutaneous positioned ALZET osmotic mini-pumps containing 25 μg/mL EGF (Becton 40001) and/or 25 μg/mL FGF-2 (R&D Systems 233-FB). Pumps containing sterile saline plus 0.1% mouse albumin (Sigma A3134) were used as controls. The incisions were closed with dental cement.\nSix days following surgery mice were injected with 0.15 mL BrdU (Sigma B5002); 18 mg/mL in 0.007% NaOH/0.1M PBS) every 2 hours for 8 hours. They were killed 0.5 hours after the last injection with an anaesthetic overdose, and transcardially perfused with 10 mL of ice-cold sterile saline followed by 10 mL of ice-cold Bouin's fixative (5% glacial acetic acid, 9% formaldehyde, 70% picric acid). The cervical spinal cord region was dissected out and post-fixed overnight at 4° C. in Bouin's post-fixative solution (9% formaldehyde, 70% picric acid). […] The number of BrdU positive cells was counted per cervical spinal cord section. […]"}, "[2]": {"test_system": "Striatal cells (E14)", "assay": "FGF-2 priming of low-density striatal cells before EGF (Example 8)", "assay_type": "cell-based, mouse", "conditions": "primed with 20 ng/ml FGF-2 for 11 DIV, then 20 ng/ml EGF 4-5 DIV; 2500 cell/cm^2", "description": "Striatal cells (E14, 2500 cell/cm^2) were plated in the absence or presence of 20 ng/ml of FGF-2. After 11 DIV, cultures were washed and medium containing 20 ng/ml of EGF was added. After 4-5 DIV, in cultures that were primed with FGF-2, greater than 70% of the wells examined contained clusters of proliferating cells that developed into colonies with the morphologic and antigenic properties of the EGF-generated cells."}, "[3]": {"test_system": "constitutively proliferating subependymal cells of the lateral ventricles", "assay": "In vivo proliferation of retrovirus β-gal labelled cells of the lateral ventricle (Example 27)", "set-up": "species or system mouse", "description": "A replication incompetent retrovirus containing the β-galactosidase gene [as described in Walsh and Cepko, Science 241:1342, (1988)] was injected into the forebrain lateral ventricles of CD1 adult male mice (25-30 g from Charles River). The injected retrovirus was harvested from the BAG cell line (ATCC CRL-9560) according to the method of Walsh and Cepko (supra). Mice were anesthetized using 65 mg/kg, i.p. sodium pentobarbital. Unilateral stereotactic injections of 0.2-1.0 μl of retrovirus were injected into the lateral ventricle using a 1 μl Hamilton syringe. The coordinates for injection were AP +4.2 mm anterior to lambda, L ±0.7 mm, and DV −2.3 mm below dura, with the mouth bar at −2 mm below the interaural line.\nOn the same day as, one day, or six days following the retrovirus injection, an infusion cannulae attached to a 0.5 μl/hour ALZET osmotic mini-pumps filled with 3.3-330 μg/ml of EGF were surgically implanted into the lateral ventricles at the identical stereotactic coordinates as stated above. The infusion cannula kits were obtained from ALZA. The infusion cannulae were cut to 2.7 mm below the pedestal. The pumps were secured to the mouse skull by use of acrylic cement and a skull screw contralateral and caudal to the injection site. […]"}},
  "data": [
    {"substance": "bFGF: basic fibroblast growth factor, recombinant human (R & D Systems)", "values": [
      {"measurement": "number of BrdU labelled cells per cervical spinal cord section compared to control", "setting": "[1]", "result": "significant increase"},
      {"measurement": "wells containing clusters of proliferating cells", "setting": "[2]", "result": "greater than 70%"},
      {"measurement": "number of β-gal labelled cells", "setting": "[3]; 33 μg/ml infusion", "result": "increase"},
      {"measurement": "migration of β-gal labelled cells", "setting": "[3]; 6 days infusion", "result": "not accompanied by any additional migration"}
    ]}
  ]
}
